Patent US10752596B2, “Nitrogen-containing heteroaryl compound and pharmaceutical use thereof” (JAPAN TOBACCO INC., priority 2017, dated 2020)

Molecular target: human GLUT9 (Homo sapiens (Human), UniProt Q9NRM0)
Test: Evaluation of human GLUT9 inhibitory activity ([14C] uric acid uptake in human GLUT9 expressing HEK293T cells transduced with Uricase/Hyper)
Assay type: cell-based
Settings: human GLUT9 stably expressing HEK293T cells; for IC50: final 300 μM uric acid, 6 min, read-out: humans GLUT9 inhibitory activity (IC50 value (μM)); for inhibition at 10 µM: HEK-293T, 10 μM compound, read-out: GLUT9 inhibitory rate at 10 μM of compound
Experimental: A method for measuring GLUT9 inhibitory activity using human GLUT9 expressing cells transduced with Uricase/Hyper is shown hereinafter. GLUT9 inhibitory activity ([…]) of the test compound was calculated based on the intracellular uptake amount of labeled uric acid ([^14C] uric acid) transported by GLUT9.
1. Preparation of Human GLUT9 Expression Plasmid
Human GLUT9S coding region (NM_001001290.1) was amplified by PCR method using PrimeSTAR MAX DNA Polymerase (Takara Bio). The obtained PCR product was subjected to agarose gel electrophoresis, and the desired size of PCR product was purified by QIAquick Gel Extraction Kit (QIAGEN). Next, pEBMulti-Bsd vector (Wako Pure Chemical Industries, Ltd.) was subjected to digestion using restriction enzymes SalI and EcoR V, and linked to the PCR product containing GLUT9S by In-Fusion reaction using In-Fusion HD Cloning Kit (Takara Bio). XL10-Gold Competent Cells (Agilent Technologies) were transformed in In-Fusion reaction solution, and the obtained transfectants were cultured with shaking overnight in LB medium to which Blasticidin S HCl (Thermo Fisher Scientific) was added. Human GLUT9 expression plasmid DNA was prepared from the collected transfectants using EndoFree Plasmid Kit (Takara Bio).
2. Establish of Human GLUT9 Stably Expressing Cell
HEK293T cells (American Type Culture Collection, DS Pharma Biomedical) were seeded in a 6 well plate at 1×10^6 cells/well. Next day, human GLUT9 expression plasmid was transfected by using Lipofectamine 3000 Reagent (Thermo Fisher Scientific) as follows. Lipofectamine 3000 Reagent (5 μL) was diluted with Opti-MEM (125 μL, Thermo Fisher Scientific). Separately, plasmid DNA (2.5 μg) was diluted with Opti-MEM (125 μL), and P3000 Reagent (5 μL) was added thereto. The obtained solution was mixed with the previously obtained diluted solution, and the mixture was left stand at room temperature for 5 min, and added to the cells. Next day, the transfected cells were diluted and reseeded in a 6 well plate at 4×10^5 cells/well, and drug selection was performed in the presence of 30 μg/mL of Blasticidin S HCl, and thereby, Blasticidin-resistant human GLUT9 stably expressing cell line was established. Mock cells were prepared by introducing pEBMulti-Bsd vector into HEK293T cells in a similar manner.
3. Preparation of Uricase/Hyper Expression Plasmid
Uricase/Hyper expression plasmid was prepared by linking the coding regions of Aspergillus Flavus-derived uricase gene and pHyPer-Cyto vector (Evrogen) HyPer gene to the pEBMulti-Hyg vector (Wako Pure Chemical Industries, Ltd.) and then introducing it. The preparation method was performed by reference to Gout and Nucleic Acid Metabolism 2013, 37(2), 93-101, and seven repeated linker sequence of glycine-glycine-glycine-serine was prepared herein.
4. Preparation of Human GLUT9-Uricase/Hyper Coexpressing Cell
Human GLUT9 stably expressing cells were seeded at 3.6×10^7 cells per 225 cm^2 flask. Next day, Uricase/Hyper expression plasmid was transfected by using Lipofectamine 3000 Reagent as follows. Lipofectamine 3000 Reagent (40 μL) was diluted with Opti-MEM (750 μL). Separately, plasmid DNA (20 μg) was diluted with Opti-MEM (750 μL), and P3000 Reagent (40 μL) was added thereto. The obtained solution was mixed with the previously obtained diluted solution, and the mixture was left stand at room temperature for 5 min, and added to the cells. Next day, transfected cells were collected to prepare human GLUT9-Uricase/Hyper coexpressing cells.
5. Evaluation of GLUT9 Inhibitory Activity
Uricase/Hyper transiently-transfected human GLUT9 stably expressing cells or mock cells (blank) were seeded in a 96 well plate (Corning) at 1.6×10^5 cells/well, and cultured overnight at 37° C., 5% CO2. D-MEM/high glucose (Wako Pure Chemical Industries, Ltd.) containing 10% Fetal Bovine Serum (Lifetechnology) and 100 units/ml penicillin/100 μg/ml streptomycin (GIBCO) was used as a medium.

Sequence of human GLUT9 (Q9NRM0 other isoform, or with tags, fused parts or gaps): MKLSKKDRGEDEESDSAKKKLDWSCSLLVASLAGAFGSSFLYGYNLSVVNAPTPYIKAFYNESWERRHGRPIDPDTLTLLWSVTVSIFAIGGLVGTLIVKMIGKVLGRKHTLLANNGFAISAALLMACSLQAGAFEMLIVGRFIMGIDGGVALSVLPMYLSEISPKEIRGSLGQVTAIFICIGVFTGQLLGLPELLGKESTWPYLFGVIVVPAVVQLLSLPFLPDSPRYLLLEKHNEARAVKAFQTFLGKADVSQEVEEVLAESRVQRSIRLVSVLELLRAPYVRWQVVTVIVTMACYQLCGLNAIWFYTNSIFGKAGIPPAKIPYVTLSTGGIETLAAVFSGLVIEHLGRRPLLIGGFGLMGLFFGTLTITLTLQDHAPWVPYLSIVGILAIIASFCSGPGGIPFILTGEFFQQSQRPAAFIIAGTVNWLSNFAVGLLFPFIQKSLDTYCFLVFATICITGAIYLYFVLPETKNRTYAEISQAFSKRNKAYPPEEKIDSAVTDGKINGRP

SMILES	IC50 [µM]	inhibition at 10 µM [%]
CCCCc1cnc(-c2ccc(OC)cc2)c(-c2ccc(C(=O)O)cc2)n1 [Example 1]	0.0807	
CCCCc1cnc(-c2ccc(OC)cc2C)c(-c2ccc(C(=O)O)cc2)n1 [Example 2]	0.946	
CCCCc1cnc(-c2ccc(OC)cc2F)c(-c2ccc(C(=O)O)cc2)n1 [Example 3]	0.134	
CCCCc1cnc(-c2ccc(OC)cc2)c(-c2ccc(C(=O)O)cc2F)n1 [Example 5]	0.0626	
CCCCc1cnc(-c2ccc(OC)cc2)c(-c2ccc(C(=O)O)c(OC)c2)n1 [Example 6]	0.141	
CCCCc1cnc(-c2ccc(C(=O)O)cc2)c(-c2ccc(C(=O)O)cc2)n1 [Example 7]		9
CCCCc1cnc(-c2ccc(C#N)cc2)c(-c2ccc(C(=O)O)cc2)n1 [Example 9]	0.483	
CCCCc1cnc(-c2ccc(F)cc2)c(-c2ccc(C(=O)O)cc2)n1 [Example 10]	1.78	
CCCCc1cnc(-c2ccc(OC)c(F)c2)c(-c2ccc(C(=O)O)cc2)n1 [Example 11]	0.0659	
COc1ccc(-c2ncc3c(c2-c2ccc(C(=O)O)cc2)CCCC3)cc1 [Example 12]	5.06	
CCCCc1cnc(-c2ccc(OC)cc2)c(-c2ccc(C(=O)O)c(F)c2)n1 [Example 14]	0.0914	
CCCCc1cnc(-c2ccc(OC)c(C(=O)O)c2)c(-c2ccc(C(=O)O)cc2)n1 [Example 15]		5
CCCCc1cnc(-c2ccc(OC)c(Cl)c2)c(-c2ccc(C(=O)O)cc2)n1 [Example 16]	0.0819	
CCCCc1cnc(-c2ccc(OC)c(C#N)c2)c(-c2ccc(C(=O)O)cc2)n1 [Example 17]	0.692	
CCCCc1cnc(-c2ccc(OC)cc2)c(-c2ccc(C(=O)O)cc2)c1 [Example 18]	0.0942	
CCCCc1cnc(-c2ccc(OC)c(C(F)(F)F)c2)c(-c2ccc(C(=O)O)cc2)n1 [Example 19]	3.07	
COCCCCc1cnc(-c2ccc(OC)cc2)c(-c2ccc(C(=O)O)cc2)n1 [Example 20]	0.12	

SMILES	IC50 [µM]	inhibition at 10 µM [%]
CCCCc1cnc(-c2cc(F)c(OC)c(F)c2)c(-c2ccc(C(=O)O)cc2)n1 [Example 21]	0.0607	
CCCCc1cnc(-c2ccc(C(=O)N(C)C)cc2)c(-c2ccc(C(=O)O)cc2)n1 [Example 22]		9
CCCCc1cnc(-c2ccc(C(F)(F)F)c(OC)c2)c(-c2ccc(C(=O)O)cc2)n1 [Example 23]	0.992	
CCCCc1cnc(-c2ccc(C(F)(F)F)c(F)c2)c(-c2ccc(C(=O)O)cc2)n1 [Example 24]	0.134	
CCCCc1cnc(-c2ccc(C(F)(F)F)c(C)c2)c(-c2ccc(C(=O)O)cc2)n1 [Example 26]	0.154	
CCCCc1cnc(-c2ccc(C(F)(F)F)c(C(F)(F)F)c2)c(-c2ccc(C(=O)O)cc2)n1 [Example 28]	4.25	
CCCCc1cnc(-c2ccc(Cl)cc2)c(-c2ccc(C(=O)O)cc2)n1 [Example 31]	0.134	
CCCCc1cnc(-c2ccc3c(c2)CCO3)c(-c2ccc(C(=O)O)cc2)n1 [Example 32]	0.0888	
CCCCc1cnc(-c2ccc(O)cc2)c(-c2ccc(C(=O)O)cc2)n1 [Example 33]		28
CCCCc1cnc(-c2ccc(C3CC3)cc2)c(-c2ccc(C(=O)O)cc2)n1 [Example 34]	0.124	
COCCCCc1cnc(-c2cc(F)c(OC)c(F)c2)c(-c2ccc(C(=O)O)cc2)n1 [Example 35]	0.119	
CCCc1cnc(-c2ccc(C(F)(F)F)cc2)c(-c2ccc(C(=O)O)cc2)n1 [Example 36]	0.189	
CCCc1cnc(-c2ccc(OC)cc2)c(-c2ccc(C(=O)O)cc2)n1 [Example 37]	0.111	
CCCCc1cnc(-c2ccc(OC)cc2)c(-c2ccc(CC(=O)O)cc2)n1 [Example 38]	0.865	
CCCCc1cnc(-c2ccc(OC)cc2)c(-c2ccc(C(=O)O)cc2)c1C [Example 39]	1.45	
COc1ccc(-c2ncc(CCC3CCCCC3)cc2-c2ccc(C(=O)O)cc2)cc1 [Example 42]	6.5	
COc1ccc(-c2ncc(CCCOCCO)cc2-c2ccc(C(=O)O)cc2)cc1 [Example 43]	7.13	
